Measured values as given in patent publication US20250376691A1, “FLOTATION OF CULTURED EMBRYO EXPLANTS FOR IMPROVED PLANT REGENERATION EFFICIENCY” (Monsanto Technology LLC, priority 2022, published 2025).

System: corn seed excised explants
Assay: Agrobacterium-mediated transformation and shoot/plant regeneration of corn seed excised explants (shoot frequency, normal shoot frequency, normal plant frequency)
Type: cell-based
Procedure: The shoot frequency was calculated as the number of inoculated explants producing shoots divided by the total number of inoculated explants.
The shoot frequency was calculated as the number of inoculated explants producing shoots divided by the total number of inoculated explants. […] The normal shoot frequency was calculated as the number of normal shoots divided by the total number of inoculated explants.

SMILES: O=C(O)COc1ccc(Cl)cc1Cl [2,4-D, 2,4-dichlorophenoxyacetic acid]
- average normal plant frequency when 2,4-D was present in co-culture medium (4 and 5 day co-culture combined): 0.73%
- average normal plant frequency (%), 2,4-D Present in Co-Culture (co-culture 4 days): 0.85%
- average normal plant frequency (%), 2,4-D Present in Co-Culture (co-culture 5 days): 0.5%
- Fold Increase in normal plant frequency without 2,4-D versus with 2,4-D, overall/average (co-culture medium, 17 experiments): 1.8
